ChEMBL document CHEMBL1201862, “PubChem BioAssay data set” (2004)
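Cultured in 96-well plates, cells were exposed to test compound for 48 hours across five concentrations. At the GI50, growth is halved.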 Calls of active or inactive are those of the source. Rule as the data show it: active = GI50 up to about 1.1 µM and inactive = higher.

Key:
Test in all cases: inhibition of tumour cell growth, NCI panel, 48 h
[1] = system: A549
[2] = system: DU-145
[3] = system: HCT-15
[4] = system: HL-60
[5] = system: HT-29
[6] = system: Hs-578T
[7] = system: LOX IMVI
[8] = system: Malme-3M
[9] = system: NCI-H226
[10] = system: NCI-H460
[11] = system: OVCAR-5
[12] = system: OVCAR-8
[13] = system: PC-3
[14] = system: SF-539
[15] = system: SK-MEL-28
[16] = system: U-251
[17] = system: UACC-257
[18] = system: A498
[19] = system: UO-31

## CN(C)CCCN1c2ccc([N+](=O)[O-])cc2CCc2cccc([N+](=O)[O-])c21
[1]
  GI50: 16 µM (inactive)
[2]
  GI50: 17.4 µM (inactive)
[3]
  GI50: 15.5 µM
[4]
  GI50: 18.1 µM (inactive)
[5]
  GI50: 13.7 µM (inactive)
[6]
  GI50: 14.4 µM (inactive)
[7]
  GI50: 16.5 µM (inactive)
[8]
  GI50: 14.1 µM (inactive)
[9]
  GI50: 13.3 µM (inactive)
[10]
  GI50: 15.5 µM (inactive)
[11]
  GI50: 13 µM (inactive)
[12]
  GI50: 17 µM (inactive)
[13]
  GI50: 16.7 µM (inactive)
[14]
  GI50: 15.2 µM (inactive)
[15]
  GI50: 14.8 µM (inactive)
[16]
  GI50: 15.3 µM (inactive)
[17]
  GI50: 14.3 µM (inactive)

## COC(=O)/C(=N\NC(N)=O)C(C(=O)C=C(C)C)C(=O)C(=O)Nc1ccc(Cl)c(Cl)c1 (configuration not stated)
[18]
  GI50: > 100 µM (inactive)
[1]
  GI50: > 100 µM (inactive)
[3]
  GI50: > 100 µM
[4]
  GI50: > 100 µM (inactive)
[5]
  GI50: > 100 µM (inactive)
[7]
  GI50: > 100 µM (inactive)
[8]
  GI50: > 100 µM (inactive)
[9]
  GI50: > 100 µM (inactive)
[10]
  GI50: > 100 µM (inactive)
[11]
  GI50: > 100 µM (inactive)
[12]
  GI50: > 100 µM (inactive)
[14]
  GI50: > 100 µM (inactive)
[15]
  GI50: > 100 µM (inactive)
[16]
  GI50: > 100 µM (inactive)
[17]
  GI50: > 100 µM (inactive)
[19]
  GI50: > 100 µM (inactive)

## C[C@]12CCC[C@H](OC=O)C1(O)C[C@H](C(=O)O)CC2 (some centres not stated)
[18]
  GI50: > 100 µM (inactive)
[1]
  GI50: > 100 µM (inactive)
[3]
  GI50: > 100 µM
[4]
  GI50: > 100 µM (inactive)
[5]
  GI50: > 100 µM (inactive)
[7]
  GI50: > 100 µM (inactive)
[8]
  GI50: > 100 µM (inactive)
[9]
  GI50: > 100 µM (inactive)
[10]
  GI50: > 100 µM (inactive)
[11]
  GI50: > 100 µM (inactive)
[12]
  GI50: > 100 µM (inactive)
[14]
  GI50: > 100 µM (inactive)
[15]
  GI50: > 100 µM (inactive)
[16]
  GI50: > 100 µM (inactive)
[17]
  GI50: > 100 µM (inactive)
[19]
  GI50: > 100 µM (inactive)

## COc1ccc(NC(=O)NS(=O)(=O)c2ccc(C)cc2)nn1
[18]
  GI50: > 100 µM (inactive)
[1]
  GI50: > 100 µM (inactive)
[3]
  GI50: > 100 µM
[4]
  GI50: > 100 µM (inactive)
[5]
  GI50: > 100 µM (inactive)
[7]
  GI50: > 100 µM (inactive)
[8]
  GI50: > 100 µM (inactive)
[9]
  GI50: > 100 µM (inactive)
[10]
  GI50: > 100 µM (inactive)
[11]
  GI50: > 100 µM (inactive)
[12]
  GI50: > 100 µM (inactive)
[14]
  GI50: > 100 µM (inactive)
[15]
  GI50: > 100 µM (inactive)
[16]
  GI50: > 100 µM (inactive)
[17]
  GI50: > 100 µM (inactive)
[19]
  GI50: > 100 µM (inactive)

## c1ccc2c(c1)Sc1ccccc1N2C1CN2CCC1CC2 (configuration not stated)
[18]
  GI50: 8.36 µM (inactive)
[1]
  GI50: 16.7 µM (inactive)
[3]
  GI50: 16.8 µM
[4]
  GI50: 14.9 µM (inactive)
[5]
  GI50: 17.3 µM (inactive)
[7]
  GI50: 10.9 µM (inactive)
[8]
  GI50: 16.3 µM (inactive)
[9]
  GI50: 4.09 µM (inactive)
[10]
  GI50: 16.1 µM (inactive)
[11]
  GI50: > 10 µM (inactive)
[12]
  GI50: 16.4 µM (inactive)
[14]
  GI50: 14 µM (inactive)
[15]
  GI50: 15.8 µM (inactive)
[16]
  GI50: 15.6 µM (inactive)
[17]
  GI50: 15.5 µM (inactive)
[19]
  GI50: 16.7 µM (inactive)

## CSc1nc(-c2ccccc2)nc(N2CCOCC2)[s+]1
[18]
  GI50: > 100 µM (inactive)
[1]
  GI50: > 100 µM (inactive)
[3]
  GI50: 37.8 µM
[4]
  GI50: 42.8 µM (inactive)
[5]
  GI50: 53.1 µM (inactive)
[7]
  GI50: 43 µM (inactive)
[8]
  GI50: > 100 µM (inactive)
[9]
  GI50: > 100 µM (inactive)
[10]
  GI50: 39 µM (inactive)
[11]
  GI50: > 100 µM (inactive)
[12]
  GI50: > 100 µM (inactive)
[14]
  GI50: > 100 µM (inactive)
[15]
  GI50: > 100 µM (inactive)
[16]
  GI50: 92.7 µM (inactive)
[19]
  GI50: > 100 µM (inactive)

## CC1C(c2ccc3c(c2)OCO3)c2cc3c(cc2OC1N1CCCCC1)OCO3 (configuration not stated)
[1]
  GI50: > 100 µM (inactive)
[2]
  GI50: 52.8 µM (inactive)
[3]
  GI50: 50.4 µM
[5]
  GI50: 57.5 µM (inactive)
[6]
  GI50: 35.4 µM (inactive)
[7]
  GI50: 82.2 µM (inactive)
[10]
  GI50: 77.8 µM (inactive)
[11]
  GI50: > 100 µM (inactive)
[12]
  GI50: > 100 µM (inactive)
[13]
  GI50: 37.5 µM (inactive)
[14]
  GI50: 50.8 µM (inactive)
[15]
  GI50: 54.8 µM (inactive)
[17]
  GI50: > 100 µM (inactive)
[19]
  GI50: 77.1 µM (inactive)

## Cc1ccc(S(=O)(=O)SCc2ccccc2)cc1
[18]
  GI50: 52.8 µM (inactive)
[1]
  GI50: 35.8 µM (inactive)
[3]
  GI50: 14.1 µM
[4]
  GI50: 2.44 µM (inactive)
[5]
  GI50: 22.9 µM (inactive)
[7]
  GI50: 18.9 µM (inactive)
[8]
  GI50: 24.4 µM (inactive)
[9]
  GI50: 21 µM (inactive)
[10]
  GI50: 28.5 µM (inactive)
[11]
  GI50: 33.2 µM (inactive)
[12]
  GI50: 15.3 µM (inactive)
[14]
  GI50: 23.4 µM (inactive)
[15]
  GI50: 50 µM (inactive)
[16]
  GI50: 27 µM (inactive)
[17]
  GI50: 31.9 µM (inactive)
[19]
  GI50: > 92.5 µM (inactive)

## Cc1ccccc1NC(=O)Cc1nc2ccccc2s1
[18]
  GI50: 19.2 µM (inactive)
[1]
  GI50: 16.6 µM (inactive)
[4]
  GI50: 9.44 µM (inactive)
[5]
  GI50: 19.6 µM (inactive)
[7]
  GI50: 16.7 µM (inactive)
[8]
  GI50: 15.8 µM (inactive)
[9]
  GI50: 18.9 µM (inactive)
[10]
  GI50: 19.4 µM (inactive)
[11]
  GI50: 21.9 µM (inactive)
[12]
  GI50: 17.7 µM (inactive)
[14]
  GI50: 18.9 µM (inactive)
[15]
  GI50: 17.7 µM (inactive)
[16]
  GI50: 11.8 µM (inactive)
[17]
  GI50: 17.1 µM (inactive)
[19]
  GI50: 11.5 µM (inactive)

## N[C@H]1CCN(c2c(F)cc3c(=O)c(C(=O)O)cn4c3c2Oc2c-4ccc3c2ccc2ccccc23)C1
[18]
  GI50: 10.4 µM (inactive)
[1]
  GI50: 1.12 µM (inactive)
[2]
  GI50: 0.942 µM (active)
[3]
  GI50: 0.364 µM
[4]
  GI50: 4.21 µM (inactive)
[5]
  GI50: 0.117 µM (active)
[6]
  GI50: 0.731 µM (active)
[7]
  GI50: 0.56 µM (active)
[8]
  GI50: 16.9 µM (inactive)
[9]
  GI50: 4.02 µM (inactive)
[10]
  GI50: 0.115 µM (active)
[11]
  GI50: 1.58 µM (inactive)
[12]
  GI50: 0.664 µM (active)
[13]
  GI50: 0.935 µM (active)
[14]
  GI50: 1.25 µM (inactive)
[15]
  GI50: 2.52 µM (inactive)
[16]
  GI50: 0.121 µM (active)
[17]
  GI50: 0.288 µM (active)
[19]
  GI50: 1.64 µM (inactive)

## [Zn+2][N+]12CCN3CCN4CCN(CC1)[PH]432 (configuration not stated)
[18]
  GI50: > 100 µM (inactive)
[1]
  GI50: > 100 µM (inactive)
[3]
  GI50: > 100 µM
[4]
  GI50: > 100 µM (inactive)
[5]
  GI50: > 100 µM (inactive)
[7]
  GI50: > 100 µM (inactive)
[8]
  GI50: > 100 µM (inactive)
[9]
  GI50: > 100 µM (inactive)
[10]
  GI50: > 100 µM (inactive)
[11]
  GI50: > 100 µM (inactive)
[12]
  GI50: > 100 µM (inactive)
[14]
  GI50: > 100 µM (inactive)
[15]
  GI50: > 100 µM (inactive)
[16]
  GI50: > 100 µM (inactive)
[17]
  GI50: > 100 µM (inactive)
[19]
  GI50: > 100 µM (inactive)

## CCOC(=O)c1c(N=P(c2ccccc2)(c2ccccc2)c2ccccc2)nnc(-c2ccccc2)c1-c1ccccc1
[18]
  GI50: 25.9 µM (inactive)
[1]
  GI50: > 100 µM (inactive)
[2]
  GI50: > 100 µM (inactive)
[3]
  GI50: > 100 µM
[4]
  GI50: > 100 µM (inactive)
[5]
  GI50: > 100 µM (inactive)
[7]
  GI50: > 100 µM (inactive)
[8]
  GI50: > 100 µM (inactive)
[9]
  GI50: > 100 µM (inactive)
[10]
  GI50: > 100 µM (inactive)
[11]
  GI50: > 100 µM (inactive)
[12]
  GI50: > 100 µM (inactive)
[13]
  GI50: > 100 µM (inactive)
[14]
  GI50: > 100 µM (inactive)
[15]
  GI50: > 100 µM (inactive)
[16]
  GI50: > 100 µM (inactive)
[17]
  GI50: > 100 µM (inactive)
[19]
  GI50: 1.66 µM (inactive)

## COc1ccc(N(CN2C(=O)CCC2OC)C(C)=O)cc1 (configuration not stated)
[18]
  GI50: > 100 µM (inactive)
[1]
  GI50: > 100 µM (inactive)
[2]
  GI50: > 100 µM (inactive)
[3]
  GI50: > 100 µM
[5]
  GI50: > 100 µM (inactive)
[6]
  GI50: > 100 µM (inactive)
[7]
  GI50: > 100 µM (inactive)
[8]
  GI50: > 100 µM (inactive)
[9]
  GI50: > 100 µM (inactive)
[10]
  GI50: > 100 µM (inactive)
[11]
  GI50: > 100 µM (inactive)
[12]
  GI50: > 100 µM (inactive)
[13]
  GI50: > 100 µM (inactive)
[14]
  GI50: > 100 µM (inactive)
[15]
  GI50: > 100 µM (inactive)
[16]
  GI50: > 100 µM (inactive)
[17]
  GI50: > 100 µM (inactive)
[19]
  GI50: > 100 µM (inactive)
